US7767648B2, “Tissue specific prodrugs” (priority 2000, dated 2010)
Numbered stars: 1 amine (or outer) side, 2 acyl side, 3 side chain; on linkers, the order of the positions; unused ones are H or OH. Square brackets hold non-standard residues; d marks the D form. Peptide text beside a SMILES is read from it. γGlu = O=C(O)[C@H](CCC(=O)[*:2])N[*:1]

Key:
prostate cancer cells = test: Induction of apoptotic death of prostate cancer cells; assay type: cell-based; settings: cell-proliferation independent
Procedure: The TG analog was synthesized by coupling the primary amine of 12ADT to the γ-carboxyl of glutamate, leaving the α-carboxyl of glutamate free to link to other amino acids, as shown in FIG. 2. The 12-ADT*Glu is a potent, cell-proliferation independent inducer of the apoptotic death of prostate cancer cells (LD50 is approximately 50 nM). The corresponding analog consisting of 12-ADT linked to the α-carboxyl of glutamate (that is, 12ADT-Glu) is also a suitable analog, as shown in FIG. 2. The prodrug containing 12ADT*Glu coupled to the longer amino acid chain (that is, 12ADT*Glu-Glu*Glu*Asp-Glu) can also be a suitable substrate. The 12ADT-Glu*Glu*Glu*Asp-Glu prodrug may also be cleaved by PSMA, which may cleave the last peptide bond in the absence of a free α-carboxyl. […] This analog can then be linked via either the α- or γ-carboxyl to a peptide chain.

[1] = Stability of PSMA substrates in mouse plasma, 18 hour incubation, HPLC; assay type: in vitro ADME; settings: for % APA-Glu or -Asp: 18 hour incubation in mouse plasma
From the text: (§1) In order that the prodrugs can be administered systemically via the blood, their stability in sera must be sufficiently high to avoid hydrolysis or other degradative processes which may occur prior to the prodrugs reaching their target tissues. In addition to GGH activity, a human blood plasma glutamate carboxypeptidase (PGCP) that has significant sequence homology to PSMA and glutamate carboxypeptidase activity has been identified. Therefore, to assay hydrolysis by GGH and other serum carboxypeptidases like PGCP, the APA-Glu*Glu*Glu*Glu*Asp, APA-Glu*Glu*Glu*Glu*Gln, and APA-Glu*Glu*Glu*Glu*Glu substrates were incubated in human and mouse plasma and hydrolysis determined by HPLC analysis after an 18-hour incubation, as shown in Table 3. As noted, GGH efficiently hydrolyzes poly-γ-glutamate chains as well as poly-γ-glutamated folate and methotrexate. GGH, however, is unable to hydrolyze α-linked peptides.
(§2) In Tables 1-3, to simplify identification of the type of amino acid linkages employed, α-linkages are denoted by a hyphen (for example, Glu-Glu) and all side-chain linkages are denoted by a star (for example, Glu*Glu). The column labeled “% PSMA Hydrolysis” refers to the percentage of hydrolysis of a substrate to APA-Asp or to APS-Glu by purified PSMA. The column labeled “% APA-Asp or -Glu” refers to the percentage of hydrolysis of substrate to APA-Asp or APA-Glu. The column labeled “% Prodrug Remaining” refers to the area of the HPLC peak attributable to starting material divided by the areas of HPLC peaks attributable to starting material, intermediate products, and final products. […] “ND” means “not determined,” in that the experiment was not performed.

PSMA = PSMA (Homo sapiens, UniProt Q04609); test: Hydrolysis of methotrexate analog substrates by purified PSMA (HPLC); assay type: biochemical; settings: for % PSMA hydrolysis 24 h / % PSMA hydrolysis 48 h: Table 3, hydrolysis of substrate to APA-Asp or APA-Glu by purified PSMA
Sequence of PSMA (Q04609 whole entry): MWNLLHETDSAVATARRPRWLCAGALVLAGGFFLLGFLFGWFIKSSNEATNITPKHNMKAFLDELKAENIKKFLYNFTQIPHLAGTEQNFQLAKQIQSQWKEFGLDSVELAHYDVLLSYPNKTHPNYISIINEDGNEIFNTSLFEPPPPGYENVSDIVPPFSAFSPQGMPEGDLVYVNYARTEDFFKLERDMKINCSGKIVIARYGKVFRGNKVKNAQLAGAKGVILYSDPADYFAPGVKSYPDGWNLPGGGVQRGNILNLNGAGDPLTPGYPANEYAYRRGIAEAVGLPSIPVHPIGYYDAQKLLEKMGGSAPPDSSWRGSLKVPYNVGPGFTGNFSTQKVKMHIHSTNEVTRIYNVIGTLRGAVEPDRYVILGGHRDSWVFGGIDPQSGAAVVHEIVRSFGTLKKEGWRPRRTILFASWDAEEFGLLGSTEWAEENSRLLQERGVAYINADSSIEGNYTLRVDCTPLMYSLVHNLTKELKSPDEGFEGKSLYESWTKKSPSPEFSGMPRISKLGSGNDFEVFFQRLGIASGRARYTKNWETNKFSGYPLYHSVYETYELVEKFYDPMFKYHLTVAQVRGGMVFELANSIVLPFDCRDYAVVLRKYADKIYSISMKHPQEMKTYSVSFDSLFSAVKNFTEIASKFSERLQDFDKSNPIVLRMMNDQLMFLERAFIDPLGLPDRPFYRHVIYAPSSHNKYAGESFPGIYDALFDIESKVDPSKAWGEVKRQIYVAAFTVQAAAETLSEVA
Procedure: The extent to which various peptide substrates are hydrolyzed by PSMA was determined by synthesizing a series of methotrexate analogs including the 4-N[N-2,4-diamino-6-pteridinyl-methyl)-N-methylamino-benzoate] (APA) portion of methotrexate coupled to a variety of peptides. Poly-glutamated methotrexate is available from Schirks Laboratories in Jona, Switzerland.
A series of α-linked peptides were investigated for PSMA hydrolysis. […] In Tables 1-3, to simplify identification of the type of amino acid linkages employed, α-linkages are denoted by a hyphen (for example, Glu-Glu) and all side-chain linkages are denoted by a star (for example, Glu*Glu).
Substrate specificity for the pteroyl poly-γ-glutamyl carboxypeptidase (folate hydrolase) activity of PSMA was determined by synthesizing a series of γ-linked methotrexate analogs and assaying them for hydrolysis by PSMA.
as §2

[2] = Stability of PSMA substrates in human plasma, 18 hour incubation, HPLC; assay type: in vitro ADME; settings: for remaining at 18 h / % APA-Glu or -Asp: 18 hour incubation in human plasma; for remaining at 18 h: HPLC peak area of starting material over all peaks, read-out: % Prodrug Remaining; for % APA-Glu or -Asp: hydrolysis of substrate to APA-Asp or APA-Glu; for stability in serum (in words): species not stated
From the text: as §1, §2

[3] = Cytotoxic activity of thapsigargin and its debutanoyl derivative; assay type: cell-based; settings: cell line not stated
Procedure: The starting material for all the synthesized analogs is 8-O-debutanoylthapsigargin, which is easily available by triethylamine catalyzed methanolysis of thapsigargin. Removal of the butanoyl results in loss of cytotoxic activity with an LD50 of >50 μM compared to <100 nM for thapsigargin. Anhydrides of dicarboxylic acids of various lengths afforded analogs in which the acyl group attached to the O-8 ended in a free carboxylic acid. A dicyclohexylcarbodiimide (DCCI) promoted coupling of a 2,4-diaminoarene to the carboxylic acid analogs affords the derivatives in which contain a primary aromatic amine as a potential coupling point for additional moeities.

TSU cancer cells = test: Loss of clonogenic survival of TSU cancer cells after exposure to methotrexate analogs; assay type: cell-based; settings: 48 hours of exposure
From the text: A number of methotrexate analogs were studied for their effect on clonogenic survival of TSU cancer cells. One such analog is L-aspartic acid, N-[4-[[(2,4-diamino-5-ethyl-6-quiazolinyl)methyl]amino]benzoyl]-sesquihydrate, also known as NSC 184692, available from the NCI Developmental Therapeutics Branch. Another compound is L-aspartic acid, N-[2-chloro-5-[[(2,4-diamino-5-methyl-6-quiazolinyl)methyl]amino]benzoyl]-dihydrate, also known as NSC 132483. Another compound is L-aspartic acid, N-[2-chloro-4-[[(2,4-diamino-6-pteridinyl)methyl]amino]benzoyl]-monohydrate, also known as NSC 134033.
The loss of clonogenic survival following treatment of TSU cancer cells with NSC 184692 and 132483 has been investigated after 48 hours of exposure, and the results are listed in Table 4.

## N-L-γ-glutamyl-12-aminododecanoyl-8-0-debutanoyl Thapsigargin [12-ADT*Glu]
Prostate cancer cells
  LD50 (apoptotic death of prostate cancer cells): approximately 50 nM

## CN(Cc1cnc2nc(N)nc(N)c2n1)c1ccc(C(=O)N[C@@H](CCC(=O)N[C@@H](CCC(=O)N[C@@H](CCC(=O)N[C@@H](CCC(=O)N[C@@H](CCC(=O)O)C(=O)O)C(=O)O)C(=O)O)C(=O)O)C(=O)O)cc1 [APA-Glu*Glu*Glu*Glu*Glu, reference compound]
[1]
  % APA-Glu or -Asp: 68%
PSMA
  % PSMA hydrolysis 24 h: 96%
  % PSMA hydrolysis 48 h: 100%
[2]
  remaining at 18 h: 11%
  % APA-Glu or -Asp: 11%

## CN(Cc1cnc2nc(N)nc(N)c2n1)c1ccc(C(=O)N[C@@H](CCC(=O)N[C@@H](CCC(=O)N[C@@H](CCC(=O)N[C@@H](CCC(=O)N[C@@H](CCC(N)=O)C(=O)O)C(=O)O)C(=O)O)C(=O)O)C(=O)O)cc1 [APA-Glu*Glu*Glu*Glu*Gln]
[1]
  % APA-Glu or -Asp: 62%
PSMA
  % PSMA hydrolysis 24 h: 97%
  % PSMA hydrolysis 48 h: 100%
PSMA; text summary of the tables
  hydrolysis by PSMA (in words): to a greater extent after 24 hours than any of the γ-linked dipeptide analogs
[2]
  remaining at 18 h: 26%
  % APA-Glu or -Asp: 6%

## N[C@@H](CC(=O)O)C(=O)N[C@@H](CCC(=O)N[C@@H](CCC(=O)N[C@@H](CC(=O)O)C(=O)N[C@@H](CCC(=O)O)C(=O)O)C(=O)O)C(=O)O [Asp-Glu*Glu*Asp-Glu] (H-D[γGlu][γGlu]DE-OH; C-terminus assumed)
[1]; mouse plasma
  stability to hydrolysis in mouse plasma (in words): completely stable to hydrolysis
[2]; human plasma
  stability to hydrolysis in human plasma (in words): completely stable to hydrolysis

## C/C=C(/C)C(=O)O[C@H]1C(C)=C2[C@H]([C@@H]1OC(=O)CCCCCCC)[C@@](C)(OC(C)=O)C[C@H](O)[C@@]1(O)[C@H]2OC(=O)[C@@]1(C)O [8-O-debutanoylthapsigargin]
[3]
  LD50 (cytotoxic activity): > 50 µM

## CN(Cc1cnc2nc(N)nc(N)c2n1)c1ccc(C(=O)N[C@@H](CCC(=O)N[C@@H](CCC(=O)N[C@@H](CCC(=O)N[C@@H](CC(=O)O)C(=O)N[C@@H](CCC(N)=O)C(=O)O)C(=O)O)C(=O)O)C(=O)O)cc1 [APA-Glu*Glu*Glu*Asp-Gln]
[2]
  remaining at 18 h: 76%
  % APA-Glu or -Asp: 13%

## CN(Cc1cnc2nc(N)nc(N)c2n1)c1ccc(C(=O)N[C@@H](CCC(=O)N[C@@H](CCC(=O)N[C@@H](CCC(=O)N[C@@H](CC(=O)O)C(=O)N[C@@H](CCC(=O)O)C(=O)O)C(=O)O)C(=O)O)C(=O)O)cc1 [APA-Glu*Glu*Glu*Asp-Glu]
[1]
  % APA-Glu or -Asp: 5%
[2]
  remaining at 18 h: 57%
  % APA-Glu or -Asp: 23%

## Cc1c(CNc2ccc(Cl)c(C(=O)N[C@@H](CC(=O)O)C(=O)O)c2)ccc2nc(N)nc(N)c12.O.O [NSC 132483, L-aspartic acid, N-[2-chloro-5-[[(2,4-diamino-5-methyl-6-quiazolinyl)methyl]amino]benzoyl]-dihydrate]
TSU cancer cells; 0.01 μmolar
  Loss of clonogenic survival: 0%
TSU cancer cells; 0.05 μmolar
  Loss of clonogenic survival: 0%
TSU cancer cells; 0.1 μmolar
  Loss of clonogenic survival: 14%
TSU cancer cells; 0.5 μmolar
  Loss of clonogenic survival: 39%
TSU cancer cells; 1 μmolar
  Loss of clonogenic survival: 50%
TSU cancer cells; 5 μmolar
  Loss of clonogenic survival: 78%

## N[C@@H](CCC(=O)N[C@@H](CCC(=O)N[C@@H](CCC(=O)N[C@@H](CC(=O)O)C(=O)N[C@@H](CCC(=O)O)C(=O)O)C(=O)O)C(=O)O)C(=O)O [Glu*Glu*Glu*Asp-Glu] ({γGlu-γGlu-γGlu}-Asp-Glu-OH; C-terminus assumed)
[2]
  stability in serum (in words): high stability in serum

## O=C(O)c1cc[c]([Hg+])cc1.[OH-] [p-hydroxymercuribenzoate, reference compound]
[1]; addition of the non-specific inhibitor of GGH and other cysteine proteases
  effect of added inhibitor on hydrolysis of the substrates in plasma: complete inhibition of hydrolysis

## NC(=O)CC[C@H](NC(=O)[C@H](CC(=O)O)NC(=O)CC[C@H](NC(=O)CC[C@H](NC(=O)CC[C@H](N)C(=O)O)C(=O)O)C(=O)O)C(=O)O [Glu*Glu*Glu*Asp-Gln] ({γGlu-γGlu-γGlu}-Asp-Gln-OH; C-terminus assumed)
[2]
  stability in serum (in words): high stability in serum

## CN(Cc1cnc2nc(N)nc(N)c2n1)c1ccc(C(=O)N[C@@H](CC(=O)O)C(=O)N[C@@H](CCC(=O)N[C@@H](CCC(=O)N[C@@H](CC(=O)O)C(=O)N[C@@H](CCC(=O)O)C(=O)O)C(=O)O)C(=O)O)cc1 [APA-Asp-Glu*Glu*Asp-Glu]
[1]
  % APA-Glu or -Asp: 2%
[2]
  remaining at 18 h: 100%
  % APA-Glu or -Asp: 0%

## C/C=C(/C)C(=O)O[C@H]1C(C)=C2[C@H]([C@@H]1OC(=O)CCCCCCC)[C@@](C)(OC(C)=O)C[C@H](OC(=O)CCC)[C@@]1(O)[C@H]2OC(=O)[C@@]1(C)O [thapsigargin]
[3]
  LD50 (cytotoxic activity): < 0.1 µM

## CN(Cc1cnc2nc(N)nc(N)c2n1)c1ccc(C(=O)N[C@@H](CC(=O)O)C(=O)N[C@@H](CCC(=O)O)C(=O)O)cc1 [APA-Asp-Glu]
[2]
  remaining at 18 h: 99%
  % APA-Glu or -Asp: 1%
[2]; 18 hour incubation in human serum, HPLC
  hydrolysis in human serum (in words): no significant hydrolysis

## CCc1c(CNc2ccc(C(=O)N[C@@H](CC(=O)O)C(=O)O)cc2)ccc2nc(N)nc(N)c12.CCc1c(CNc2ccc(C(=O)N[C@@H](CC(=O)O)C(=O)O)cc2)ccc2nc(N)nc(N)c12.O.O.O [NSC 184692, L-aspartic acid, N-[4-[[(2,4-diamino-5-ethyl-6-quiazolinyl)methyl]amino]benzoyl]-sesquihydrate]
TSU cancer cells; 0.01 μmolar
  Loss of clonogenic survival: 17%
TSU cancer cells; 0.05 μmolar
  Loss of clonogenic survival: 44%
TSU cancer cells; 0.1 μmolar
  Loss of clonogenic survival: 57%
TSU cancer cells; 0.5 μmolar
  Loss of clonogenic survival: 82%
TSU cancer cells; 1 μmolar
  Loss of clonogenic survival: 88%
TSU cancer cells; 5 μmolar
  Loss of clonogenic survival: 93%
